Test results as given in patent US20240208992A1, “MACROCYCLES AS CFTR MODULATORS” (Idorsia Pharmaceuticals Ltd, priority 2021, published 2024).

Molecular target: human F508del-CFTR (Homo sapiens, UniProt P13569, DEL508-508)
Test: F508del-CFTR cell surface expression (corrector activity), DiscoveRx ß-galactosidase complementation chemiluminescence assay in recombinant U2OS cell line;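 note: U2OS cells co-expressing ProLink-tagged F508del-CFTR and a membrane-anchored enzyme acceptor, where more surface CFTR restores β-galactosidase activity measured by chemiluminescence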
Conditions: for EC50: EC50, F508del-CFTR cell surface expression
[1] = U2OS cell line, 16h compound incubation, geomean values
[2] = U2OS, in relation to the Emax of the corrector lumacaftor (=100%), U2OS cell line, 16h compound incubation, arithmetic mean values
[3] = U2OS cells, 16h compound incubation, geomean values
[4] = U2OS, in relation to Emax of corrector lumacaftor (=100%), arithmetic mean values
[5] = U2OS cells, 16h compound incubation, geomean of several measurements
[6] = U2OS, in relation to the Emax of the corrector lumacaftor (=100%), U2OS cells, 16h compound incubation, arithmetic mean

Sequence of human F508del-CFTR (P13569 with tags, fused parts or gaps DEL508-508): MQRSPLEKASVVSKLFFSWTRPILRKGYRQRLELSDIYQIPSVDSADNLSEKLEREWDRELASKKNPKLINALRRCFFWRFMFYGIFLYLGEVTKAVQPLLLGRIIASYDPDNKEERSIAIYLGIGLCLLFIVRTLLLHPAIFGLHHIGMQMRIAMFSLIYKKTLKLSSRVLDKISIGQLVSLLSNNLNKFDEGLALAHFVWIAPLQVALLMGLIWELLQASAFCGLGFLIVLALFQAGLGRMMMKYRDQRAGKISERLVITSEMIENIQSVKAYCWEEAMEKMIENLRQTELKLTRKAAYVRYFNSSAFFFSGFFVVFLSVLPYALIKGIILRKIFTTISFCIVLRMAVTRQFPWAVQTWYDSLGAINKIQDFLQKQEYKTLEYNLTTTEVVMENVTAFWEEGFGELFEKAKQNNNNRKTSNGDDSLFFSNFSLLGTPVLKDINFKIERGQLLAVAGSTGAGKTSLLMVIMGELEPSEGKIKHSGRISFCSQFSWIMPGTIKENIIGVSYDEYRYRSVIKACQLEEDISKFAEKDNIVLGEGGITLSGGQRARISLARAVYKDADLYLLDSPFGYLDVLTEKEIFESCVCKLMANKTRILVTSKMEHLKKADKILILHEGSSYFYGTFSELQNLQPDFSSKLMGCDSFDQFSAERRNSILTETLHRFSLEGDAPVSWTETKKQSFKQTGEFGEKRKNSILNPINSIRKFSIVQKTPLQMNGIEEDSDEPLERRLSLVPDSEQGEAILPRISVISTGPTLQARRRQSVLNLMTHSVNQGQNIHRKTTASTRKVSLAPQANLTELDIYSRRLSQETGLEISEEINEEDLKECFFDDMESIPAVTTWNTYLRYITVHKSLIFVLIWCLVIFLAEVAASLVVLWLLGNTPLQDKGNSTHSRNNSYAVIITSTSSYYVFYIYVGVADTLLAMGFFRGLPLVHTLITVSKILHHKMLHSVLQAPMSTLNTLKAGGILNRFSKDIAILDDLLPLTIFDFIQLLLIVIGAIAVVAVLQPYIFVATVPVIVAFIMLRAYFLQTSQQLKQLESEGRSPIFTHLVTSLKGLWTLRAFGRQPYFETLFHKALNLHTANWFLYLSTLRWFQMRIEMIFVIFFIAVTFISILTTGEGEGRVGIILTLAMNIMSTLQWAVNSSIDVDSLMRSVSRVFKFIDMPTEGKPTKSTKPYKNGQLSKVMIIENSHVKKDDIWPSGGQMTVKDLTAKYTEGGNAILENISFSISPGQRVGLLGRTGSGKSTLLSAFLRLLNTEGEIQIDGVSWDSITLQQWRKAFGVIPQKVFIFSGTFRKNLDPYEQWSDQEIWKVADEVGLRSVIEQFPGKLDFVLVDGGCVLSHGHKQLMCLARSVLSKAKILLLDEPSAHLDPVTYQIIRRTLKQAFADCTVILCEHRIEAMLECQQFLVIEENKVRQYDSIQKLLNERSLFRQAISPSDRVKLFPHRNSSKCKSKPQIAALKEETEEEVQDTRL

`COc1cc2c(cc1OC)C(=O)N[C@H](C(=O)NCCc1ccc3c(c1)OCCN3C)CC(=O)N(C)[C@@H](CC(C)C)C(=O)N(C)CC(=O)N[C@H](Cc1ccccc1)CO2` [Example 8, (3R,9S,13S)-3-benzyl-9-isobutyl-17,18-dimethoxy-7,10-dimethyl-N-(2-(4-methyl-3,4-dihydro-2H-benzo[b][1,4]oxazin-7-yl)ethyl)-5,8,11,15-tetraoxo-2,3,4,5,6,7,8,9,10,11,12,13,14,15-tetradecahydrobenzo[p][1]oxa[4,7,10,14]tetraazacycloheptadecine-13-carboxamide] gave an EC50 [1] of 887 nM and an Emax [2] of 210%.

Molecule `COc1nccc2c1C(=O)NC(C(=O)NCCc1cc(C3CC3)no1)CC(=O)N(C)C(CC(C)C)C(=O)N(C)C(CC1CCC(F)(F)CC1)C(=O)NC(Cc1ccccc1)CO2` (single isomer, unassigned) [Example 661] has an EC50 [3] of 421 nM and an Emax (in relation to Emax of corrector lumacaftor (=100%), arithmetic mean values) of 247%.

`CN1C(=O)C[C@@H](C(=O)NCCc2ccc3c(c2)OCO3)NC(=O)c2c(ccc3ccccc23)OC[C@@H](Cc2ccccc2)NC(=O)CN(CC[C@H]2CCCCO2)C(=O)[C@@H]1CC1CCCCC1` (racemic) [Example 289, (3RS,7S,13R)-N-(2-(benzo[d][1,3]dioxol-5-yl)ethyl)-13-benzyl-7-(cyclohexylmethyl)-6-methyl-1,5,8,11-tetraoxo-9-(2-((SR)-tetrahydro-2H-pyran-2-yl)ethyl)-1,2,3,4,5,6,7,8,9,10,11,12,13,14-tetradecahydronaphtho[1,2-p][1]oxa[4,7,10,14]tetraazacycloheptadecine-3-carboxamide] showed an EC50 [1] of 186 nM and an Emax [2] of 160%.

Molecule `Cc1cc(CCNC(=O)[C@@H]2CC(=O)N(C)[C@@H](CC3CCCC3)C(=O)N(C)C3(CC3)C(=O)N[C@H](Cc3ccccc3)COc3cnc4ccccc4c3C(=O)N2)on1` [Example 432, (3′S,7′S,13′R)-13′-benzyl-7′-(cyclopentylmethyl)-6′,9′-dimethyl-N-(2-(3-methylisoxazol-5-yl)ethyl)-1′,5′,8′,11′-tetraoxo-2′,3′,4′,5′,6′,7′,8′,9′,11′,12′,13′,14′-dodecahydro-1′H-spiro[cyclopropane-1,10′-[1]oxa[4,7,10,14]tetraazacycloheptadecino[17,16-c]quinoline]-3′-carboxamide] has an EC50 [3] of 474 nM and an Emax [4] of 413%.

For `COc1cccc(CCNC(=O)[C@@H]2CC(=O)N(C)[C@@H](CC(C)C)C(=O)N(C)C3(CC3)C(=O)N[C@H](Cc3ccccc3)COc3nc4ccccn4c3C(=O)N2)c1` [Example 442, (3′R,9′S,13′S)-3′-benzyl-9′-isobutyl-N-(3-methoxyphenethyl)-7′,10′-dimethyl-5′,8′,11′,15′-tetraoxo-2′,3′,4′,5′,8′,9′,10′,11′,12′,13′,14′,15′-dodecahydro-7′H-spiro[cyclopropane-1,6′-pyrido[2′,11:2,3]imidazo[4,5-p][1]oxa[4,7,10,14]tetraazacycloheptadecine]-13′-carboxamide], the EC50 [3] was 443 nM and the Emax [4] was 154%.

`COc1cccc(CCNC(=O)[C@@H]2CC(=O)N(C)[C@@H](CC(C)C)C(=O)N3CCOC[C@@H]3C(=O)N[C@H](Cc3ccccc3)COc3cc4oc(C)nc4cc3C(=O)N2)c1` [Example 407] showed an EC50 [3] of 684 nM and an Emax [4] of 123%.

With `COc1cccc2c1C(=O)N[C@H](C(=O)NCCc1ccc3c(c1)OCO3)CC(=O)N(C)[C@@H](CC1CC1)C(=O)N(CCC1CCCCC1)CC(=O)N[C@H](Cc1ccccc1)CO2` (mixture of isomers) [Example 274, (3R,9S,13RS)-N-(2-(benzo[d][1,3]dioxol-5-yl)ethyl)-3-benzyl-7-(2-cyclohexylethyl)-9-(cyclopropylmethyl)-16-methoxy-10-methyl-5,8,11,15-tetraoxo-2,3,4,5,6,7,8,9,10,11,12,13,14,15-tetradecahydrobenzo[p][1]oxa[4,7,10,14]tetraazacycloheptadecine-13-carboxamide] the EC50 [1] was 288 nM and the Emax [2] was 186%.

Molecule `COc1cccc(CCNC(=O)[C@@H]2CC(=O)N(C)[C@@H](C)C(=O)N(CCC3CCCCC3)CC(=O)N[C@H](Cc3ccccc3)COc3cc(OC)cc(OC)c3C(=O)N2)c1` [Example 273, (3R,9S,13S)-3-benzyl-7-(2-cyclohexylethyl)-16,18-dimethoxy-N-(3-methoxyphenethyl)-9,10-dimethyl-5,8,11,15-tetraoxo-2,3,4,5,6,7,8,9,10,11,12,13,14,15-tetradecahydrobenzo[p][1]oxa[4,7,10,14]tetraazacycloheptadecine-13-carboxamide] has an EC50 [1] of 365 nM and an Emax [2] of 169%.

With `COc1cc(CCNC(=O)[C@@H]2CC(=O)N(C)[C@@H](CC(C)C)C(=O)N(C)C3(CC(F)(F)C3)C(=O)N[C@H](Cc3ccccc3)COc3cnc4ccc(F)cc4c3C(=O)N2)on1` [Example 839, (3′S,7′S,13′R)-13′-benzyl-3,3,20′-trifluoro-7′-isobutyl-N-(2-(3-methoxyisoxazol-5-yl)ethyl)-6′,9′-dimethyl-1′,5′,8′,11′-tetraoxo-2′,3′,4′,5′,6′,7′,8′,9′,11′,12′,13′,14′-dodecahydro-1′H-spiro[cyclobutane-1,10′-[1]oxa[4,7,10,14]tetraazacycloheptadecino[17,16-c]quinoline]-3′-carboxamide] the EC50 [5] was 123 nM and the Emax [6] was 336%.

Work on `COc1cccc(CCNC(=O)[C@@H]2CC(=O)N(C)[C@@H](CC(C)C)C(=O)N3CCN(CC(C)C)C[C@@H]3C(=O)N[C@H](Cc3ccccc3)COc3cnc4ccccc4c3C(=O)N2)c1` [Example 372, (9S,13S,19aR,22R)-22-benzyl-13,18-diisobutyl-N-(3-methoxyphenethyl)-12-methyl-7,11,14,20-tetraoxo-7,8,9,10,11,12,13,14,17,18,19,19a,20,21,22,23-hexadecahydro-16H-pyrazino[2′,11:6,7][1]oxa[4,7,10,14]tetraazacycloheptadecino[17,16-c]quinoline-9-carboxamide] yielded an EC50 [1] of 72 nM and an Emax [2] of 360%.

`COc1cnn(CCNC(=O)[C@@H]2CC(=O)N(C)[C@@H](CC(C)C)C(=O)N(C)C3(CC3)C(=O)N[C@H](Cc3ccccc3)COc3cnc4ccc(F)cc4c3C(=O)N2)c1` [Example 188, (3′S,7′S,13′R)-13′-benzyl-20′-fluoro-7′-isobutyl-N-(2-(4-methoxy-1H-pyrazol-1-yl)ethyl)-6′,9′-dimethyl-1′,5′,8′,11′-tetraoxo-2′,3′,4′,5′,6′,7′,8′,9′,11′,12′,13′,14′-dodecahydro-1′H-spiro[cyclopropane-1,10′-[1]oxa[4,7,10,14]tetraazacycloheptadecino[17,16-c]quinoline]-3′-carboxamide] showed an EC50 [1] of 586 nM and an Emax [2] of 275%.

`COc1cc(CCNC(=O)[C@@H]2CC(=O)N(C)[C@@H](CC(C)C)C(=O)N(C)[C@H](C)C(=O)N[C@H](Cc3ccccc3)COc3ccc4cnc(C)cc4c3C(=O)N2)on1` [Example 825, (3S,7S,10R,13R)-13-benzyl-7-isobutyl-N-(2-(3-methoxyisoxazol-5-yl)ethyl)-6,9,10,20-tetramethyl-1,5,8,11-tetraoxo-1,2,3,4,5,6,7,8,9,10,11,12,13,14-tetradecahydro-[1]oxa[4,7,10,14]tetraazacycloheptadecino[16,17-f]isoquinoline-3-carboxamide] gave an EC50 [5] of 353 nM and an Emax [6] of 388%.

`COc1cccc(CCNC(=O)[C@@H]2CC(=O)N(C)[C@@H](CC(C)C)C(=O)N3CCN(C(C)C)C[C@@H]3C(=O)N[C@H](Cc3ccccc3)COc3cnc4ccccc4c3C(=O)N2)c1` [Example 374, (9S,13S,19aR,22R)-22-benzyl-13-isobutyl-18-isopropyl-N-(3-methoxyphenethyl)-12-methyl-7,11,14,20-tetraoxo-7,8,9,10,11,12,13,14,17,18,19,19a,20,21,22,23-hexadecahydro-16H-pyrazino[2′,1′:6,7][1]oxa[4,7,10,14]tetraazacycloheptadecino[17,16-c]quinoline-9-carboxamide] gave an EC50 [1] of 102 nM and an Emax [2] of 333%.

`Cc1c(CCNC(=O)[C@@H]2CC(=O)N(C)[C@@H](CC(C)C)C(=O)N3CCOC[C@@H]3C(=O)N[C@H](Cc3ccccc3)COc3ccc4ccccc4c3C(=O)N2)c(Cl)cc2c1OCCO2` [Example 36, (4aR,7R,18S,22S)-7-benzyl-N-(2-(7-chloro-5-methyl-2,3-dihydrobenzo[b][1,4]dioxin-6-yl)ethyl)-22-isobutyl-21-methyl-5,16,20,23-tetraoxo-1,2,4,4a,5,6,7,8,16,17,18,19,20,21,22,23-hexadecahydronaphtho[1,2-p][1,4]oxazino[3,4-f][1]oxa[4,7,10,14]tetraazacycloheptadecine-18-carboxamide] was tested, and the EC50 [1] was 306 nM and the Emax [2] was 120%.

For `COc1cccc(CCNC(=O)[C@@H]2CC(=O)N(C)CC(=O)N(CCC3CCCCC3)CC(=O)N[C@H](Cc3ccccc3)COc3cccc(OC)c3C(=O)N2)c1` [Example 258, (3R,13S)-3-benzyl-7-(2-cyclohexylethyl)-16-methoxy-N-(3-methoxyphenethyl)-10-methyl-5,8,11,15-tetraoxo-2,3,4,5,6,7,8,9,10,11,12,13,14,15-tetradecahydrobenzo[p][1]oxa[4,7,10,14]tetraazacycloheptadecine-13-carboxamide], the EC50 [1] was 424 nM and the Emax [2] was 117%.

Molecule `CC(C)C[C@H]1C(=O)N(C)[C@H](CCc2nc(-c3ccc(F)cn3)no2)C(=O)N[C@H](Cc2ccccc2)COc2cnc3ccc(F)cc3c2C(=O)N[C@H](C(=O)NCCc2noc(C3CC3)n2)CC(=O)N1C` [Example 887, (3S,7S,10R,13R)-13-benzyl-N-(2-(5-cyclopropyl-1,2,4-oxadiazol-3-yl)ethyl)-20-fluoro-10-(2-(3-(5-fluoropyridin-2-yl)-1,2,4-oxadiazol-5-yl)ethyl)-7-isobutyl-6,9-dimethyl-1,5,8,11-tetraoxo-1,2,3,4,5,6,7,8,9,10,11,12,13,14-tetradecahydro-[1]oxa[4,7,10,14]tetraazacycloheptadecino[17,16-c]quinoline-3-carboxamide] has an EC50 [5] of 111 nM and an Emax [6] of 340%.
